The values below come from BindingDB's records for doi:10.1016/j.chembiol.2011.05.010 (Harvard Medical School, 2011).

Test in all cases: Biochemical Assay
For one assay, the target named is T1, Aurora kinase C (Homo sapiens, UniProt Q9UQB9).
T1 sequence (Q9UQB9 whole entry): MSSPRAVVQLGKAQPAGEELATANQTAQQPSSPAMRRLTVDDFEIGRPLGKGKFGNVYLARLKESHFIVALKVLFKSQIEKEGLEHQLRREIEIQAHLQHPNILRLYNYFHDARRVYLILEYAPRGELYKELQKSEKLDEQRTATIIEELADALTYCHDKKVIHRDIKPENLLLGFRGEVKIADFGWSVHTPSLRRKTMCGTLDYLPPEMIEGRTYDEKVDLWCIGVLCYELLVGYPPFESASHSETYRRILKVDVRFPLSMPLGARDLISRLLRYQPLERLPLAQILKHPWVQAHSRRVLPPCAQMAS
Here is the method: (§1) In vitro biochemical assays were performed in parallel to determine the most potent tool compound.

Another assay concerns the target Aurora kinase B (Homo sapiens, UniProt Q96GD4). Here is the method: as §1
For the next assay, the target named is T2, Aurora kinase A (Homo sapiens, UniProt O14965).
T2 sequence (O14965 whole entry): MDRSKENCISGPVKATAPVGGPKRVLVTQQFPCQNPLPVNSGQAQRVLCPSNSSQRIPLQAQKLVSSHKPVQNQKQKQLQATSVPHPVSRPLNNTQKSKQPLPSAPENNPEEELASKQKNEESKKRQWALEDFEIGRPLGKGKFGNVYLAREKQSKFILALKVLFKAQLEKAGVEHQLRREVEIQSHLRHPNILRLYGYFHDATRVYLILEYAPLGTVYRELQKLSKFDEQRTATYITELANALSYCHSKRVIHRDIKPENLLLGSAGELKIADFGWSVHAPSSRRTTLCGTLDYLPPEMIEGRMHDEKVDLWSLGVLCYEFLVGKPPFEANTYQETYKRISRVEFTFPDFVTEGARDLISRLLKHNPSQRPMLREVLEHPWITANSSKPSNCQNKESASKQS
Here is the method: as §1

Assay [1] concerns the target Homeodomain-interacting protein kinase 2 (Homo sapiens, UniProt Q9H2X6). Here is the method: as §1

Sequence of Homeodomain-interacting protein kinase 2 (Q9H2X6 whole entry): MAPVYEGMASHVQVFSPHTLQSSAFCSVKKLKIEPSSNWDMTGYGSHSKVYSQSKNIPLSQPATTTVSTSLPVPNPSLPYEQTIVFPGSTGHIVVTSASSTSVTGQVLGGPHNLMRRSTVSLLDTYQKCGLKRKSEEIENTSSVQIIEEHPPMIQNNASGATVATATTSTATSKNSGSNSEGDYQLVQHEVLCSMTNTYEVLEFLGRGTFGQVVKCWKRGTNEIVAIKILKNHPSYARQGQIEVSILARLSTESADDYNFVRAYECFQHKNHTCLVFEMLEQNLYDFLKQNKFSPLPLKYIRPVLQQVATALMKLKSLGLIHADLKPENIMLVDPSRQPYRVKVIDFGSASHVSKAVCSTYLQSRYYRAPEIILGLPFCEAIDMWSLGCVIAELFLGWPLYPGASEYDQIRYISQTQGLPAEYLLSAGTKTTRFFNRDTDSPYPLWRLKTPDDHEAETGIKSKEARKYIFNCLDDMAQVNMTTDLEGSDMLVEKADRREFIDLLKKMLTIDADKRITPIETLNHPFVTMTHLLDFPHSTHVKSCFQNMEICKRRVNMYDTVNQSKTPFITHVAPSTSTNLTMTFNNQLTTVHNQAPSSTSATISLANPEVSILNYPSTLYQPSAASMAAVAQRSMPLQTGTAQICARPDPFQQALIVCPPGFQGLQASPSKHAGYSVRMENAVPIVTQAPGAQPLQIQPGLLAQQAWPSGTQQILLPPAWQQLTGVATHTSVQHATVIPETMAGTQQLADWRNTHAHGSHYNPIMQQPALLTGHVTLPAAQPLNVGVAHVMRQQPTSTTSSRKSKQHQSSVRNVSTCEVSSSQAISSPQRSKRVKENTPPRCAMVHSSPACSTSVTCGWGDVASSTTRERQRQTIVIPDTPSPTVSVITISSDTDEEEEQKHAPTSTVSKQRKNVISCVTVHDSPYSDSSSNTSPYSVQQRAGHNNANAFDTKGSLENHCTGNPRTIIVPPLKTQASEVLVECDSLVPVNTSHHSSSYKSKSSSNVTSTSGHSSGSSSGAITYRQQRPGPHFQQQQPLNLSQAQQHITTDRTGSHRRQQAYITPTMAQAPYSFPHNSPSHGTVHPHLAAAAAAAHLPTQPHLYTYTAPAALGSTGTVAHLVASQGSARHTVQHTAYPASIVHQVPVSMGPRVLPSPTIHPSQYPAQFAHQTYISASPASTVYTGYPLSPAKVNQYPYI
Sequence of Aurora kinase B (Q96GD4 whole entry): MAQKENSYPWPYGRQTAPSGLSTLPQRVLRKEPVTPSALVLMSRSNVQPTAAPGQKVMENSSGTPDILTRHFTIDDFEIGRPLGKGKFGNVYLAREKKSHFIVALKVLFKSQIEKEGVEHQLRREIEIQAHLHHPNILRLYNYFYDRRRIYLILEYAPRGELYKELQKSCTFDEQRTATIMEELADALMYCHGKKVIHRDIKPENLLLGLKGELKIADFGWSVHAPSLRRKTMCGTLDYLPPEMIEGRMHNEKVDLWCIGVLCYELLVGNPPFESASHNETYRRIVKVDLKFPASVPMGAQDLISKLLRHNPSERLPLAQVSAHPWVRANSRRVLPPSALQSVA

As for `CN1C(=O)c2ccccc2N(C)c2nc(Nc3ccc(N4CCC(O)CC4)cc3)ncc21` [Benzo[e]pyrimido[5,4-b][1,4]diazepin-6(11H)-one, 1], the IC50 against Aurora kinase C was found to be 41 nM; at Aurora kinase B, 24 nM; on Aurora kinase A, 8 nM.

In the case of `N=C1NC(=O)/C(=C\c2c[nH]c(=O)c(-c3ccc(N4CCNCC4)nc3)c2)S1` [Furan thiazolidinediones, A64], in assay [1], the IC50 stood at 74 nM and binding was characterised by a dissociation constant (Kd) of 9.5 nM.

A word on the IC50: it is the concentration that gives 50% inhibition. By Kd is commonly meant the concentration at which binding is half-saturated.
